Patent EP0908457B1, “3-(1,2-benzisothiazol- and isoxazol-5-Y1)-2,4(1H,3H)-pyrimidinedione or thione and 3-(1,2-benzisothiazol- and isoxazol-5-y1)-4(3H)-pyrimidinone or thione herbicidal agents” (BASF AKTIENGESELLSCHAFT, priority 1997, dated 1999)

Experiments:
[1] = test system: Cyperus iria; assay: Preemergence weed control under flooded paddy conditions, CYPIR (Rice Flatsedge); assay type: in vivo; settings: preemergence, flooded paddy, rated three to four weeks after treatment; note: meaning of each grade not given here
[2] = test system: Oryza sativa, (L.) Tebonnet; assay: Rice tolerance to post-transplant applications under flooded paddy conditions (Example 187), ORYSAT (Rice, Tebonnet); settings: rated three to four weeks after treatment; note: meaning of each grade not given here
[3] = test system: Cyperus iria; assay: Postemergence weed control under flooded paddy conditions, CYPIR (Rice Flatsedge); assay type: in vivo; settings: rated three to four weeks after treatment
[4] = test system: Cyperus serotinus, Rottb.; assay: Postemergence weed control under flooded paddy conditions, CYPSE (Flatsedge); assay type: in vivo; settings: rated three to four weeks after treatment
[5] = test system: Monochoria vaginalis, Presl.; assay: Postemergence weed control under flooded paddy conditions, MOOVA (Monochoria); assay type: in vivo; settings: rated three to four weeks after treatment
[6] = test system: Cyperus serotinus, Rottb.; assay: Preemergence weed control under flooded paddy conditions, CYPSE (Flatsedge); assay type: in vivo; settings: preemergence, rated three to four weeks after treatment; note: meaning of each grade not given here
[7] = test system: Sagittaria pygmaea, L.; assay: Postemergence weed control under flooded paddy conditions, SAGPY (Arrowhead (Pygmaea)); assay type: in vivo; settings: rated three to four weeks after treatment
[8] = test system: Monochoria vaginalis, Presl.; assay: Preemergence weed control under flooded paddy conditions, MOOVA (Monochoria); assay type: in vivo; settings: preemergence, flooded paddy, rated three to four weeks after treatment; note: meaning of each grade not given here
[9] = test system: Sagittaria pygmaea, L.; assay: Preemergence weed control under flooded paddy conditions, SAGPY (Arrowhead (Pygmaea)); assay type: in vivo; settings: preemergence, flooded paddy, rated three to four weeks after treatment; note: meaning of each grade not given here
[10] = test system: Echinochloa oryzoides (Ard.) Fritsch.; assay: Postemergence weed control under flooded paddy conditions, ECHORC (Watergrass (Calif.)); assay type: in vivo; settings: rated three to four weeks after treatment
[11] = test system: Echinochloa oryzoides (Ard.) Fritsch.; assay: Preemergence weed control under flooded paddy conditions, ECHORC (Watergrass (Calif.)); assay type: in vivo; settings: preemergence, flooded paddy, rated three to four weeks after treatment; note: meaning of each grade not given here
[12] = test system: Oryza sativa, (L.) Tebonnet; assay: Rice tolerance to post-transplant applications under flooded paddy conditions (Example 188), ORYSAT (Rice, Tebonnet); settings: rated three to four weeks after treatment

COC(=O)COc1ccc(C)cc1-c1noc2cc(F)c(-n3c(=O)cc(C(F)(F)F)n(C)c3=O)cc12 [Example 359, Acetic acid, {{2-{5-[3,6-dihydro-3-methyl-2,6-dioxo-4-(trifluoromethyl)-1(2H)-pyrimidinyl]-6-fluoro-1,2-benzisoxazol-3-yl}-p-tolyl}oxy}-, methyl ester]
4.5: herbicidal effect rating, SAGPY ([9]; Rate 0.2500 kg/ha)
6.3: herbicidal effect rating, CYPIR ([1]; Rate 0.0320 kg/ha)
0.0: herbicidal effect rating, CYPSE ([4]; Rate 0.0320 kg/ha) | herbicidal effect rating, CYPSE ([4]; Rate 0.0620 kg/ha) | herbicidal effect rating, CYPSE ([4]; Rate 0.1250 kg/ha) | herbicidal effect rating, SAGPY ([7]; Rate 0.0320 kg/ha) | herbicidal effect rating, SAGPY ([7]; Rate 0.0620 kg/ha) | herbicidal effect rating, SAGPY ([7]; Rate 0.1250 kg/ha) | herbicidal effect rating, SAGPY ([9]; Rate 0.0320 kg/ha)
8.5: herbicidal effect rating, CYPIR ([1]; Rate 0.1250 kg/ha) | herbicidal effect rating, ECHORC ([11]; Rate 0.0320 kg/ha)
3.0: herbicidal effect rating, ORYSAT (rice tolerance) ([12]; Rate 0.0620 kg/ha)
0.5: herbicidal effect rating, SAGPY ([9]; Rate 0.0620 kg/ha)
7.5: herbicidal effect rating, CYPIR ([1]; Rate 0.0620 kg/ha)
1.8: herbicidal effect rating, SAGPY ([9]; Rate 0.1250 kg/ha)
6.5: herbicidal effect rating ORYSAT ([2]; Rate 0.0320 kg/ha)
8.8: herbicidal effect rating ORYSAT ([2]; Rate 0.1250 kg/ha) | herbicidal effect rating, MOOVA ([8]; Rate 0.0320 kg/ha)
4.0: herbicidal effect rating, CYPIR ([3]; Rate 0.0320 kg/ha) | herbicidal effect rating, ORYSAT (rice tolerance) ([12]; Rate 0.1250 kg/ha)
2.0: herbicidal effect rating, ECHORC ([10]; Rate 0.0320 kg/ha) | herbicidal effect rating, ORYSAT (rice tolerance) ([12]; Rate 0.0320 kg/ha)
5.0: herbicidal effect rating, SAGPY ([9]; Rate 0.5000 kg/ha)
9.0: herbicidal effect rating, CYPIR ([1]; Rate 0.2500 kg/ha) | herbicidal effect rating, CYPIR ([1]; Rate 0.5000 kg/ha) | herbicidal effect rating ORYSAT ([2]; Rate 0.2500 kg/ha) | herbicidal effect rating ORYSAT ([2]; Rate 0.5000 kg/ha) | herbicidal effect rating, CYPIR ([3]; Rate 0.1250 kg/ha) | herbicidal effect rating, MOOVA ([5]; Rate 0.1250 kg/ha) | herbicidal effect rating, CYPSE ([6]; Rate 0.0320 kg/ha) | herbicidal effect rating, CYPSE ([6]; Rate 0.1250 kg/ha) | herbicidal effect rating, CYPSE ([6]; Rate 0.2500 kg/ha) | herbicidal effect rating, MOOVA ([8]; Rate 0.0620 kg/ha) | herbicidal effect rating, MOOVA ([8]; Rate 0.1250 kg/ha) | herbicidal effect rating, MOOVA ([8]; Rate 0.2500 kg/ha) | herbicidal effect rating, MOOVA ([8]; Rate 0.5000 kg/ha) | herbicidal effect rating, ECHORC ([11]; Rate 0.0620 kg/ha) | herbicidal effect rating, ECHORC ([11]; Rate 0.1250 kg/ha) | herbicidal effect rating, ECHORC ([11]; Rate 0.2500 kg/ha) | herbicidal effect rating, ECHORC ([11]; Rate 0.5000 kg/ha)
6.0: herbicidal effect rating, CYPSE ([6]; Rate 0.0620 kg/ha) | herbicidal effect rating, ECHORC ([10]; Rate 0.0620 kg/ha) | herbicidal effect rating, ECHORC ([10]; Rate 0.1250 kg/ha)
7.0: herbicidal effect rating, CYPIR ([3]; Rate 0.0620 kg/ha) | herbicidal effect rating, MOOVA ([5]; Rate 0.0320 kg/ha) | herbicidal effect rating, MOOVA ([5]; Rate 0.0620 kg/ha)
7.3: herbicidal effect rating ORYSAT ([2]; Rate 0.0620 kg/ha)

CC(C)S(=O)(=O)NC(=O)c1nsc2ccc(-n3c(=O)cc(C(F)(F)F)n(C)c3=O)cc12 [Example 362, 1,2-Benzisothiazole-3-carboxamide, 5-[3,6-dihydro-3-methyl-2,6-dioxo-4-(trifluoromethyl)-1(2H)-pyrimidinyl]-N-(isopropylsulfonyl)-]
4.0: herbicidal effect rating ORYSAT ([2]; Rate 0.0320 kg/ha) | herbicidal effect rating ORYSAT ([2]; Rate 0.0620 kg/ha) | herbicidal effect rating ORYSAT ([2]; Rate 0.1250 kg/ha) | herbicidal effect rating, CYPIR ([3]; Rate 0.0320 kg/ha) | herbicidal effect rating, CYPIR ([3]; Rate 0.2500 kg/ha) | herbicidal effect rating, SAGPY ([7]; Rate 0.1250 kg/ha) | herbicidal effect rating, ECHORC ([11]; Rate 0.0320 kg/ha)
0.0: herbicidal effect rating, CYPSE ([4]; Rate 0.0320 kg/ha) | herbicidal effect rating, SAGPY ([7]; Rate 0.0320 kg/ha) | herbicidal effect rating, SAGPY ([7]; Rate 0.0620 kg/ha) | herbicidal effect rating, ECHORC ([10]; Rate 0.0320 kg/ha)
8.0: herbicidal effect rating ORYSAT ([2]; Rate 0.5000 kg/ha) | herbicidal effect rating, CYPIR ([3]; Rate 0.1250 kg/ha) | herbicidal effect rating, SAGPY ([7]; Rate 0.2500 kg/ha)
2.0: herbicidal effect rating, ECHORC ([10]; Rate 0.0620 kg/ha)
3.0: herbicidal effect rating, CYPIR ([1]; Rate 0.0320 kg/ha) | herbicidal effect rating, ORYSAT (rice tolerance) ([12]; Rate 0.0320 kg/ha) | herbicidal effect rating, ORYSAT (rice tolerance) ([12]; Rate 0.0620 kg/ha) | herbicidal effect rating, ORYSAT (rice tolerance) ([12]; Rate 0.1250 kg/ha)
5.0: herbicidal effect rating, CYPIR ([1]; Rate 0.0620 kg/ha) | herbicidal effect rating, CYPIR ([1]; Rate 0.1250 kg/ha)
9.0: herbicidal effect rating, CYPIR ([1]; Rate 0.5000 kg/ha) | herbicidal effect rating, CYPSE ([4]; Rate 0.0620 kg/ha) | herbicidal effect rating, CYPSE ([4]; Rate 0.1250 kg/ha) | herbicidal effect rating, CYPSE ([4]; Rate 0.2500 kg/ha) | herbicidal effect rating, MOOVA ([5]; Rate 0.0320 kg/ha) | herbicidal effect rating, MOOVA ([5]; Rate 0.0620 kg/ha) | herbicidal effect rating, MOOVA ([5]; Rate 0.1250 kg/ha) | herbicidal effect rating, MOOVA ([5]; Rate 0.2500 kg/ha) | herbicidal effect rating, CYPSE ([6]; Rate 0.0620 kg/ha) | herbicidal effect rating, CYPSE ([6]; Rate 0.1250 kg/ha) | herbicidal effect rating, CYPSE ([6]; Rate 0.2500 kg/ha) | herbicidal effect rating, CYPSE ([6]; Rate 0.5000 kg/ha) | herbicidal effect rating, MOOVA ([8]; Rate 0.0320 kg/ha) | herbicidal effect rating, MOOVA ([8]; Rate 0.0620 kg/ha) | herbicidal effect rating, MOOVA ([8]; Rate 0.1250 kg/ha) | herbicidal effect rating, MOOVA ([8]; Rate 0.2500 kg/ha) | herbicidal effect rating, MOOVA ([8]; Rate 0.5000 kg/ha) | herbicidal effect rating, SAGPY ([9]; Rate 0.0320 kg/ha) | herbicidal effect rating, SAGPY ([9]; Rate 0.0620 kg/ha) | herbicidal effect rating, SAGPY ([9]; Rate 0.1250 kg/ha) | herbicidal effect rating, SAGPY ([9]; Rate 0.2500 kg/ha) | herbicidal effect rating, SAGPY ([9]; Rate 0.5000 kg/ha) | herbicidal effect rating, ECHORC ([10]; Rate 0.2500 kg/ha) | herbicidal effect rating, ECHORC ([11]; Rate 0.2500 kg/ha) | herbicidal effect rating, ECHORC ([11]; Rate 0.5000 kg/ha)
7.0: herbicidal effect rating, CYPIR ([1]; Rate 0.2500 kg/ha) | herbicidal effect rating, CYPIR ([3]; Rate 0.0620 kg/ha) | herbicidal effect rating, ECHORC ([10]; Rate 0.1250 kg/ha) | herbicidal effect rating, ECHORC ([11]; Rate 0.0620 kg/ha) | herbicidal effect rating, ECHORC ([11]; Rate 0.1250 kg/ha)
6.0: herbicidal effect rating ORYSAT ([2]; Rate 0.2500 kg/ha) | herbicidal effect rating, CYPSE ([6]; Rate 0.0320 kg/ha) | herbicidal effect rating, ORYSAT (rice tolerance) ([12]; Rate 0.2500 kg/ha)
